Results published in patent publication US6130250A, “Veterinary use of a pleuromutilin derivative” (priority 1996, dated 2000).
Values joined by “and” are separate entries in the source; they are usually repeats but may differ in a detail not shown here. Equal entries are not always repeated. Structures can show the parent of a compound that is named as a salt. Where two headings read alike, the source gives them in different places.

Test system: Lawsonia intracellularis
Experiment: Lawsonia intracellularis infection of IEC-18 rat enterocyte cell cultures
Format: cell-based
Conditions: for Percentage ratio of Lawsonia intracellularis infection: listed as Valnemulin (ch); for percent of cells infected with Lawsonia intracellularis at 2 µg/mL: IEC-18, 2 μg/ml; for percent of cells infected with Lawsonia intracellularis at 2 µg/mL / percent of cells infected with Lawsonia intracellularis at 8 µg/mL: first strain column, read-out: Percentage ratio of Lawsonia intracellularis infection; for percent of cells infected with Lawsonia intracellularis at 8 µg/mL: IEC-18, 8 μg/ml
Description: The method of Lawson, G. H. K. et al., J. Clin. Microbiol. 31 (1993) 1136-1142 is generally followed, with some modifications (standard Kirby-Bauer disc methods are not applicable to intracellular bacteria):
Cells: Monolayers of IEC-18 rat enterocyte cell cultures (ATCC CRL 1589) are established and maintained by standard cell culture methods. One day old monolayers of dividing cells (approx. 30% confluence) are prepared for infection on day 0, on glass coverslips in small culture vials (Tracs).
Inocula: Batches of three strains of Lawsonia intracellularis are used as inocula. These are derived from pigs afflicted with proliferative enteropathy, of the proliferative haemorrhagic enteropathy (PHE) and porcine intestinal adenomatosis (PIA) forms prepared from pig intestines, and passaged in cell cultures as described in the above Lawson reference. The two PHE strains were partly tested for pathogenicity in pigs as described in McOrist, S. et al., Infect. Immun. 61 (1993) 4286-4292. Inocula batches are collected after several cell passages, and stored frozen at -70° C. in 1 ml vials. Preliminary trials established appropriate dilutions of thawed vials that would result in readily recognizeable cell infections in 5 day trials.
Antibiotics are prepared as 100× stock solutions for each use. Activity of each batch of antibiotic is confirmed by standard Kirby-Bauer disc methods with a laboratory strain of Escherichia coli.
Infections: On day 0, a vial of each strain is thawed, diluted 1/8 to 1/32 with culture medium, for use in four groups 1 to 4.
For group 4 (continuous treatment) this inoculum is initially incubated for one hour at 37° C. in culture medium containing the antibiotic at various concentrations prior to addition to cells.
For group 3 (extracellular activity) this inoculum is prepared in culture medium, containing the antibiotic at various concentrations added immediately prior to time of addition to cells.
For groups 1 (control) and 2 (intracellular activity) inocula are prepared in culture medium free of antibiotics and added to cells. Culture vials (Tracs) with cells with added inocula (+/- antibiotics) in a total of 0.5 ml of medium are placed in steel jars, evacuated to 40% atmosphere (8% O2), left for 2 min, replenished with hydrogen and finally 10% CO2. Tracs are then removed from these jars and placed into an incubator set to provide a humidified atmosphere of 8% O2, 8.8% CO2 and the remainder nitrogen, at 37° C.
On days 1 and 2 all vials are removed and refed with fresh medium, either containing antibiotics, groups 2 and 4, or not, groups 1 and 3, and replaced into the incubator. On day 5, all coverslips are removed and stained for Lawsonia intracellularis by indirect immunoperoxidase stain incorporating a specific monoclonal antibody. The number of cells on each coverslip, heavily infected with Lawsonia intracellularis (>30 per cell, heavily infected cell=HIC) is used as the main measure of infection. The number of foci of HIC and general cell observations are also noted. HIC in control (group 1), intracellularly active antibiotic assay (group 2), extracelluiarly active antibiotic assay (group 3) and continuous treatment assay (group 4) are compared in triplicate assays, for up to 3 strains each. Some assay are repeated for various inocula strengths. Percentage ratios are calculated after derivation of the mean HIC of the controls relevant to the test group. Mean control HIC is the total number of HIC in control Tracs divided by the number of infected control Tracs. The percentage ratio of test Tracs is then calculated by dividing their HIC value by the mean control HIC, multiplied by 100 to give a percentage.

[1] = Lawsonia intracellularis, group 2 (intracellular activity)
[2] = Lawsonia intracellularis, group 3 (extracellular activity)

`C=C[C@]1(C)C[C@@H](OC(=O)CSC(C)(C)CNC(=O)[C@H](N)C(C)C)[C@]2(C)[C@H](C)CC[C@]3(CCC(=O)[C@H]32)[C@@H](C)[C@@H]1O` [valnemulin hydrochloride, 14-O-[1-[(R)-2-amino-3-methylbutyrylamino]-2-methylpropan-2-ylthioacetyl]mutilin] was tested, and the “Percentage ratio of Lawsonia intracellularis infection” value (shortened to “Percentage ratio”) (4 μg/ml, group 2 (intracellular activity)) was 1.7%, the “Percentage ratio” value (4 μg/ml, group 3 (extracellular activity)) was 0.83% and 1.7% and the “Percentage ratio” value (4 μg/ml, group 4 (continuous treatment)) was 0.8% and 2.5%. The “Percentage ratio” value (8 μg/ml, group 2 (intracellular activity)) was 0.86%, the “Percentage ratio” value (8 μg/ml, group 3 (extracellular activity)) was 0.2% and 1.4% and the “Percentage ratio” value (8 μg/ml, group 4 (continuous treatment)) was 0.5% and 1.4% and 0.2%. For the same molecule, the percent of cells infected with Lawsonia intracellularis at 2 µg/mL [1] was 0%, the percent of cells infected with Lawsonia intracellularis at 2 µg/mL [2] was 0% and the percent of cells infected with Lawsonia intracellularis at 8 µg/mL [1] was 0%. The percent of cells infected with Lawsonia intracellularis at 8 µg/mL [2] was 0%, the percent of cells infected with Lawsonia intracellularis at 8 µg/mL (Lawsonia intracellularis, group 4 (continuous treatment)) was 0% and the MIC (Lawsonia intracellularis, read-out: minimum concentration to cause significant inhibition of growth (<1% growth)) was less than 2 µg/mL.
